Patent publication US20220054493A1, “INHIBITORS OF NGAL PROTEIN” (INSERM (INSTITUT NATIONAL DE LA SANTÉ ET DE LA RECHERCHE …, priority 2019, published 2022)

Experiments:
Aqueous solubility = format: physicochemical
Experimental: (§1) Two specific toxicity assays have been performed to assess hepatoxicity and cardiotoxicity. Hepatotoxicity was evaluated in isolated hepatocytes from swiss mice and determined by the MTT colorimetric assay. Cardiotoxicity was evaluated using the commercially available Predictor hERG fluorescence polarization kit (Thermo Fisher Scientific). Several ADME assays have been carried out on the compounds generated throughout the project. The following experiments were undertaken: Stability in human microsomes, binding to human plasma protein, and CYP3A4 inhibition assay (Vivid CYP3A4 assay, Thermo Fisher Scientific). Physico-chemical properties were also assessed such as aqueous solubility and chemical stability.

hERG channel = target: T1, hERG channel (Homo sapiens, UniProt Q12809); assay: Cardiotoxicity, Predictor hERG fluorescence polarization kit; format: binding
T1 construct: purchased Thermo Fisher Scientific
T1 sequence (Q12809 whole entry): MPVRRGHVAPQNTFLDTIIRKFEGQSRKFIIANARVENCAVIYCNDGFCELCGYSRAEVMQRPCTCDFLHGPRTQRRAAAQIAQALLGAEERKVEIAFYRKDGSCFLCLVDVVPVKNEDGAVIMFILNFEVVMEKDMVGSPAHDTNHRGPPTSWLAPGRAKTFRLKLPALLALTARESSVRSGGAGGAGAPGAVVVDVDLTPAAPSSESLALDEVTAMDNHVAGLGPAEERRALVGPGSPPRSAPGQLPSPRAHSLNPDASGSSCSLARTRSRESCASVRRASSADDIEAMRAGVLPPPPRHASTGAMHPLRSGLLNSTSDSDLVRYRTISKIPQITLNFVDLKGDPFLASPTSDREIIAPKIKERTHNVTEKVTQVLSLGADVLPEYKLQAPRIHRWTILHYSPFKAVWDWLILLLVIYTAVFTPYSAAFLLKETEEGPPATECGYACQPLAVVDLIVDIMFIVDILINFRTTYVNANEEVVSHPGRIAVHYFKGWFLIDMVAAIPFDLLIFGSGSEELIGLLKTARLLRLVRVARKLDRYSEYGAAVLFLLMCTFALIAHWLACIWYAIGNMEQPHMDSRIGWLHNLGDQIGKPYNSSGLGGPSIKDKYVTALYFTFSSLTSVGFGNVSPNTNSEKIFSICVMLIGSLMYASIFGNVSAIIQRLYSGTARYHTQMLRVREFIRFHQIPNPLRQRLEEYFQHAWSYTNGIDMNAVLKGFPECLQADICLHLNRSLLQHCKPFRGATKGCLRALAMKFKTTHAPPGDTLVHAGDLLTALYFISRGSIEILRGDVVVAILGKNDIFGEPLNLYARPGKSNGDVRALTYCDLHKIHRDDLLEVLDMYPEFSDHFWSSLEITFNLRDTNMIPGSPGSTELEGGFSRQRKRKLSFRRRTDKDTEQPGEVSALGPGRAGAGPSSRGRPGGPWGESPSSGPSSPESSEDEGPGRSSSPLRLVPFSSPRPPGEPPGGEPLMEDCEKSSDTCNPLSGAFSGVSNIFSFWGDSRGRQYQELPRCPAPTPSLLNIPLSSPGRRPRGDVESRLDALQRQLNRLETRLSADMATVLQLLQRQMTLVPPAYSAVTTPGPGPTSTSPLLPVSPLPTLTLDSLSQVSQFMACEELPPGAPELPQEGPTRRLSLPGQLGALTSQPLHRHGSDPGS
Experimental: as §1

[1] = tested on: Myocardial Infarction Model; assay: Cardiac function (echocardiography, LV hemodynamics) in the myocardial infarction model; format: in vivo, mice; settings: MI model, 100 mg/kg/day in food admix, three months
Experimental: 8-12 weeks old mice (WT C57B16 for GP1 compound experiments) or 8-12 weeks old mice with genetic inactivation of lcn2 (as described in Martinez-martinez et al., Hypertension 2017, December; 70(6):1148-1156) have been used. LV diastolic and systolic diameters were measured in anesthetized (isofluorane 1.5%) mice, according to the American Society of Echocardiography's leading-edge method (using Vivid 7 echograph a 14 Mhz probe). In addition, LV outflow velocity was measured by pulsed waves, and CO was calculated as follows: CO=aortic VTI×[πx·(LV outflow diameter/2)^2]×heart rate, where VTI is velocity-time integral.
LV hemodynamic was assessed as described previously.
Mice were anesthetized (chloral 320 mg·kg−1, IP) and the carotid artery cannulated with a pressure-volume catheter (SPR839, Millar-Instruments, USA) and the catheter was advanced into the LV. Pressure-volume loops were obtained at baseline and during loading by gently occluding the abdominal aorta. LV end-systolic and end-diastolic pressures, dP/dtmax/min, LV relaxation constant tau and were measured/calculated with IOX software (EMKA, France).

[2] = tested on: Myocardial Infarction Model; assay: Profibrotic, IL6 and inflammatory target tissue content in the myocardial infarction model; format: in vivo, mice; settings: MI model, 100 mg/kg/day in food admix, three months
Experimental: Total protein aliquots of 20 μg were prepared from cardiac homogenates and electrophoresed on SDS polyacrylamide gels and transferred to Hybond-c Extra nitrocellulose membranes (Amersham Biosciences). Membranes were incubated with primary antibodies for: NGAL (Abcam; dilution 1:500), Collagen type III (Santa Cruz; dilution 1:500), a-SMA (Sigma; dilution 1:1000), CTGF Abcam; dilution 1:500), GDF-15 (Abcam; dilution 1:500), fibronectin (Millipore, 1:500), Galectin-3 (Thermo, 1:1000), Cardiotrophin-1 (Abcam, 1:500), osteopontin (Santa Cruz, 1:1000), cd3 (Abcam, 1:500), cd68 (Abcam, 1:500), cd80 (Santa Cruz, 1:500) and β-actin (Sigma; dilution 1:1000) as a loading control. […] After densitometric analyses, optical density values were expressed as arbitrary units. Results are expressed as an n-fold increase over the values of the control group in densitometric arbitrary units. NGAL, IL6 and collagen type I concentrations were measured in cardiac tissue and cell supernatants, respectively, by ELISA according to the manufacturer's instructions (R&D Systems).

recombinant murine NGAL = target: T2, recombinant murine NGAL (Mus musculus, UniProt P11672); assay: NGAL-induced profibrotic and proinflammatory gene expression in renal fibroblasts; format: cell-based; settings: renal fibroblast cells stimulated with recombinant murine NGAL
T2 construct: purchased R&D Systems
T2 sequence (P11672 21-200): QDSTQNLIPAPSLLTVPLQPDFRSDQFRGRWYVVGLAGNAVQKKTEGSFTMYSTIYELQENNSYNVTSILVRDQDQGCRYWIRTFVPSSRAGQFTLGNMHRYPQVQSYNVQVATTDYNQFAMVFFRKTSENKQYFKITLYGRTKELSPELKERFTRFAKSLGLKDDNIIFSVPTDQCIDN
Experimental: Cell Culture Human cardiac fibroblasts (primary culture) were obtained from Promocell and maintained in medium (Fibroblast Media 3). Cells were cultured according to the manufacturer's instructions and used between passages 5 and 7. Cells were stimulated with aldosterone (10^-8 M, Sigma) or recombinant hNGAL (500 ng/mL, R&D Systems) for 24 h for protein analysis. Mouse kidney fibroblasts (MKF), were isolated from Wild Type (WT) mice. Briefly, mice 7 to 8 weeks were sacrificed by cervical dislocation and kidneys were cleaned and rinsed in cold DPBS (Dulbecco's Phosphate-Buffered Saline). The renal cortex was minced and incubated in Dulbecco's modified eagle medium/Nutrient mixture F-12 (DMEM/F12, Sigma) containing 1 mg/mL collagenase A (Roche) during 25 minutes at 37° C. The digestion was inactivated by adding culture medium (DMEM/F12+10% FBS) then the cell suspension was passed through a 100-μm cell strainer. After centrifugation, the pellet (containing MKF) was diluted with culture medium then plated in 75 cm^2 culture flask. […]
Frozen tissues (kidneys, heart) were homogenized in TRIzol (Life Technologies, 15596018) using FastPrep beads (MP-Bio, 6913-100). cDNAs were generated using the Superscript II reverse transcriptase kit (Invitrogen, 18064022), and qPCR was performed as previously described. Briefly, transcript levels were analysed in a CFX396 apparatus (Biorad). […]

## CC(=O)c1cccc(S(=O)(=O)NCc2ccccc2-n2cccn2)c1 [GPZ614741]
Aqueous solubility
  Aquous solubility: 100%
  solubility in aqueous buffers (solubility test): perfectly soluble
hERG channel
  cardiotoxicity (hERG predictor assay): no toxicity
hERG channel; 100 = no toxicity
  Cardiotoxicity % (100 = no toxicity): 101.76 ± 2.48%
[1]; FIG. 7 panel A
  fractional shortening (LV Frac. Short.): significant increase
[1]; FIG. 7 panel D
  stroke volume: increased
[1]; FIG. 7 panel E
  cardiac output: increased
[1]; FIG. 7 panels B-C
  LV diastolic diameter (LV Diast. Diam.): slight although statistical non-significant decrease
  LV systolic diameter (LV Syst. Diam.): slight although statistical non-significant decrease
[1]; FIG. 8 panel A
  LV end-systolic pressure (LVESP): not modified
[1]; FIG. 8 panel B
  LV dP/dtmax: significant increase
[1]; FIG. 8 panel C
  LV end-diastolic pressure (LVEDP): tended to be reduced
[1]; FIG. 8 panel D
  LV dP/dtmin: increased
[1]; FIG. 8 panel E
  LV relaxation constant Tau: decreased
[2]; FIG. 10 panel A
  aSMA tissue content: significant prevention of up regulation
[2]; FIG. 10 panel B
  GDF15 tissue content: significant prevention of up regulation
[2]; FIG. 10 panel C
  CTGF tissue content: significant prevention of up regulation
[2]; FIG. 10 panel D
  Col1 tissue content: significant prevention of up regulation
[2]; FIG. 11 panel A
  IL6 tissue content: significant prevention of up regulation
[2]; FIG. 12 panel C
  CD68 tissue content: significant prevention of up regulation
[2]; FIG. 12 panel D
  CD 80 tissue content: significant prevention of up regulation
[2]; FIG. 12 panel E
  CD86 tissue content: significant prevention of up regulation
[2]; FIG. 12 panels A, B
  CD3 tissue content: significant prevention of up regulation
Recombinant murine NGAL; FIG. 16
  NGAL-induction of inflammatory (IL6, MCP1) gene expression: inhibited
Recombinant murine NGAL; FIG. 16A
  NGAL-induction of profibrotic (Collagen1, fibronectin, aSMA) gene expression: inhibited
